Data from patent publication US9090593B2, “Bicyclic compounds as Pim inhibitors” (AMGEN INC., priority 2010, dated 2015).
Read-outs that look alike come from different tables or passages of the source.

Experiments:
[1] = biological target: T1, full length recombinant Pim-3 protein (Homo sapiens, UniProt Q86V86); assay: Pim-3 enzyme assay (HTRF, phosphorylation of biotinylated-BAD (S112) peptide); type: biochemical; settings: read-out: Pim3 IC50
T1 construct: by full length recombinant Pim-1, Pim-2, or Pim-3 protein; purchased Millipore (UK)
Method in brief: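 Full-length recombinant Pim-3 phosphorylates biotinylated BAD (S112) peptide in 60 mM Hepes pH 7.0, 0.05% BSA, 2 mM DTT; reaction stopped with 3 mM EDTA. Phospho-BAD detected by HTRF (Eu anti-phospho-BAD S112 antibody, streptavidin-APC). IC50 from percent-of-control values fitted to a 4-parameter logistic model.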

[2] = biological target: T2, Pim-1 stably transfected into the U2OS human osteogenic sarcoma line (Homo sapiens, UniProt P11309); assay: Pim cell assay, phospho-BAD normalized against total BAD, U2OS stably transfected with Pim-1; type: cell-based; settings: read-out: Pim1_Cell_IC50
T2 construct: expressed in transfected cells; host or cells: U2OS human osteogenic sarcoma line
Method in brief: (§1)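 U2OS cells stably expressing Pim-1 or Pim-2 were plated overnight at 37 °C, then dosed over a 10-point curve (final 0.3% DMSO; DMSO alone as high control). Lysates assayed for phospho- and total BAD by Meso Scale immunoassay; % phosphoprotein = (2×phospho)/(phospho+total)×100.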

[3] = biological target: T3, Pim-2 stably transfected into the U2OS human osteogenic sarcoma line (Homo sapiens, UniProt Q9P1W9); assay: Pim cell assay, phospho-BAD normalized against total BAD, U2OS stably transfected with Pim-2; type: cell-based; settings: read-out: Pim2_Cell_IC50; note: high dose 31.6 µM
T3 construct: expressed in transfected cells; host or cells: U2OS human osteogenic sarcoma line
Method in brief: as §1

[4] = biological target: T4, full length recombinant Pim-2 protein (Homo sapiens, UniProt Q9P1W9); assay: Pim-2 enzyme assay (HTRF, phosphorylation of biotinylated-BAD (S112) peptide); type: biochemical; settings: enzyme assay, Pim-2; read-out: Pim2_IC50
T4 construct: by full length recombinant Pim-1, Pim-2, or Pim-3 protein; hexahistidine tag followed by a thrombin cleavage site (N); made in house; host or cells: Sf9 (baculovirus) or E. coli (pET28)
Method in brief: (§2)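 Kinase: full-length human Pim-1/Pim-2, His6-thrombin tagged. Substrate biotin-BAD (S112) peptide. Buffer 60 mM Hepes pH 7.0, 0.05% BSA, 2 mM DTT. Stop 3 mM EDTA. Detection HTRF (Eu anti-pBAD/SA-APC). IC50 by 4-parameter logistic on POC.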

[5] = biological target: T5, full length recombinant Pim-1 protein (Homo sapiens, UniProt P11309); assay: Pim-1 enzyme assay (HTRF, phosphorylation of biotinylated-BAD (S112) peptide); type: biochemical; settings: enzyme assay, Pim-1; read-out: Pim_1_IC50
T5 construct: by full length recombinant Pim-1, Pim-2, or Pim-3 protein; hexahistidine tag followed by a thrombin cleavage site (N); made in house; host or cells: Sf9 (baculovirus) or E. coli (pET28)
Method in brief: as §2

[6] = U2OS cells stably transfected with Pim-1, phospho-BAD, high dose […]
[7] = U2OS cells stably transfected with Pim-2, phospho-BAD, high dose […]

T2 sequence (P11309 whole entry): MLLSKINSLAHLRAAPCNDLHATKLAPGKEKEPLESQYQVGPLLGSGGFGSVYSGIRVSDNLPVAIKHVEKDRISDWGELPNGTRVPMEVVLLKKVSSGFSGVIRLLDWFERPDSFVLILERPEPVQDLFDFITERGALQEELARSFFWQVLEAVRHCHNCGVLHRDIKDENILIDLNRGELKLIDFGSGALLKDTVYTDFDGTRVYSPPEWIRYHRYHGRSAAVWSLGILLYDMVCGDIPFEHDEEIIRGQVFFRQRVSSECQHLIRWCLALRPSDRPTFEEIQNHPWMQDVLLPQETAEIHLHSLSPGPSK
T5 sequence (P11309 whole entry): as above
T3 sequence (Q9P1W9 whole entry): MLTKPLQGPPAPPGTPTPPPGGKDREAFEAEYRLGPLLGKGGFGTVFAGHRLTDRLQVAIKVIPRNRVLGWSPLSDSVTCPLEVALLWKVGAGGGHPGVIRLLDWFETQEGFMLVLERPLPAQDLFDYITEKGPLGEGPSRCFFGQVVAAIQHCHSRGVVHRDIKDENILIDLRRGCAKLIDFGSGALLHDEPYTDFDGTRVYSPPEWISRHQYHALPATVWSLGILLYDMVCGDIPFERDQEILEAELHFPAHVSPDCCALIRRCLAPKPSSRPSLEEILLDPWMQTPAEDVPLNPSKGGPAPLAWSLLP
T4 sequence (Q9P1W9 whole entry): as above

SMILES	IC50 [1] [nM]	IC50 [2, 6] [nM]	IC50 [3, 7] [nM]	IC50 [4] [nM]	IC50 [5] [nM]	IC50 [2] [nM]	IC50 [3] [nM]
NC1CCN(c2cncc(-c3n[nH]c4ccc(-c5cccc(F)c5F)cc34)n2)CC1 [Example 71, 1-(6-(5-(2,3-difluorophenyl)-1H-indazol-3-yl)-2-pyrazinyl)-4-piperidinamine]	1	256	8820	11	3		
NC1CCN(c2cncc(-c3n[nH]c4ccc(-c5cc(=O)[nH]cc5Cl)cc34)n2)CC1 [Example 74, 4-(3-(6-(4-amino-1-piperidinyl)-2-pyrazinyl)-1H-indazol-5-yl)-5-chloro-2(1H)-pyridinone]	15	> 31600	> 31600	54	14		
COc1cccc(-c2ccc3[nH]nc(-c4cncc(N5CCC(N)CC5)n4)c3c2)c1 [Example 77, 1-(6-(5-(3-methoxyphenyl)-1H-indazol-3-yl)-2-pyrazinyl)-4-piperidinamine]	3	453	> 31600	70	6		
NC1CCN(c2cncc(-c3n[nH]c4ccc(-c5cccc(O)c5)cc34)n2)CC1 [Example 78, 3-(3-(6-(4-amino-1-piperidinyl)-2-pyrazinyl)-1H-indazol-5-yl)phenol]	1	885	7970	27	2		
NC1CCN(c2cncc(-c3n[nH]c4ccc(-c5ccn[nH]5)cc34)n2)CC1 [Example 80, 1-(6-(5-(1H-pyrazol-5-yl)-1H-indazol-3-yl)-2-pyrazinyl)-4-piperidinamine]	1	2380	> 31600	15	3		
Nc1cccc(-c2ccc3[nH]nc(-c4cncc(N5CCC(N)CC5)n4)c3c2)c1 [Example 81, 1-(6-(5-(3-aminophenyl)-1H-indazol-3-yl)-2-pyrazinyl)-4-piperidinamine]	3	395	7170	29	2		
NC1CCN(c2cncc(-c3n[nH]c4ccc(-c5cncc(F)c5)cc34)n2)CC1 [Example 85, 1-(6-(5-(5-fluoro-3-pyridinyl)-1H-indazol-3-yl)-2-pyrazinyl)-4-piperidinamine]	1	176	7020	36	5		
COc1cc(OC)cc(-c2ccc3[nH]nc(-c4cncc(N5CCC(N)CC5)n4)c3c2)c1 [Example 86, 1-(6-(5-(3,5-dimethoxyphenyl)-1H-indazol-3-yl)-2-pyrazinyl)-4-piperidinamine]	2	328	20300	60	6		
CN1CCN(c2ccc3[nH]nc(-c4cncc(N5CCC(N)CC5)n4)c3c2)C1=O [Example 92, 1-(3-(6-(4-amino-1-piperidinyl)-2-pyrazinyl)-1H-indazol-5-yl)-3-methyl-2-imidazolidinone]	5			57	9	2230	> 31600
NC1CCN(c2cncc(-c3n[nH]c4ccc(-c5ccc6cc[nH]c6n5)cc34)n2)CC1 [Example 95, 1-(6-(5-(1H-pyrrolo[2,3-b]pyridin-6-yl)-1H-indazol-3-yl)-2-pyrazinyl)-4-piperidinamine]	3	384	> 31600	82	5		
Nc1cc(-c2ccc3[nH]nc(-c4cncc(N5CCC(N)CC5)n4)c3c2)ccn1 [Example 100, 4-(3-(6-(4-amino-1-piperidinyl)-2-pyrazinyl)-1H-indazol-5-yl)-2-pyridinamine]	2	1250	> 31600	18	1		
COc1ccc2c(-c3ccc4[nH]nc(-c5cncc(N6CCC(N)CC6)n5)c4c3)ccnc2c1 [Example 101, 1-(6-(5-(7-methoxy-4-quinolinyl)-1H-indazol-3-yl)-2-pyrazinyl)-4-piperidinamine]	10	269	> 31600	55	4		

Further compounds by falling IC50 [1], results first:

IC50 [1] [nM]	IC50 [2, 6] [nM]	IC50 [3, 7] [nM]	IC50 [4] [nM]	IC50 [5] [nM]	IC50 [2] [nM]	IC50 [3] [nM]	SMILES
82	487	> 31600	> 1000	13			CC(C)(C)C(=O)Nc1cccc(-c2ccc3[nH]nc(-c4cncc(N5CCC(N)CC5)n4)c3c2)n1 [Example 93, N-(6-(3-(6-(4-amino-1-piperidinyl)-2-pyrazinyl)-1H-indazol-5-yl)-2-pyridinyl)-2,2-dimethylpropanamide]
57	1190	> 31600	685	48			NC1CCN(c2cncc(-c3n[nH]c4ccc(-c5ccccn5)cc34)n2)CC1 [Example 88, 1-(6-(5-(2-pyridinyl)-1H-indazol-3-yl)-2-pyrazinyl)-4-piperidinamine]
40	747	> 31600	196	23			NC1CCN(c2cncc(-c3n[nH]c4ccc(N5CCCCC5)cc34)n2)CC1 [Example 90, 1-(6-(5-(1-piperidinyl)-1H-indazol-3-yl)-2-pyrazinyl)-4-piperidinamine]
5	533	> 31600	82	3			NC1CCN(c2cncc(-c3n[nH]c4ccc(-c5ccccc5O)cc34)n2)CC1 [Example 72, 2-(3-(6-(4-amino-1-piperidinyl)-2-pyrazinyl)-1H-indazol-5-yl)phenol]
5	2740	> 31600	187	16			CS(=O)(=O)c1cccc(-c2ccc3[nH]nc(-c4cncc(N5CCC(N)CC5)n4)c3c2)c1 [Example 76, 1-(6-(5-(3-(methylsulfonyl)phenyl)-1H-indazol-3-yl)-2-pyrazinyl)-4-piperidinamine]
5	569	> 31600	43	12			NC1CCN(c2cncc(-c3n[nH]c4ccc(-c5cncnc5)cc34)n2)CC1 [Example 87, 1-(6-(5-(5-pyrimidinyl)-1H-indazol-3-yl)-2-pyrazinyl)-4-piperidinamine]
5	4720	> 31600	57	3			NC1CCN(c2cncc(-c3n[nH]c4ccc(-c5cn6ccnc6cn5)cc34)n2)CC1 [Example 99, 1-(6-(5-imidazo[1,2-a]pyrazin-6-yl-1H-indazol-3-yl)-2-pyrazinyl)-4-piperidinamine]
4	255	> 31600	18	5			COc1cc(-c2ccc3[nH]nc(-c4cncc(N5CCC(N)CC5)n4)c3c2)c(F)cn1 [Example 70, 1-(6-(5-(5-fluoro-2-methoxy-4-pyridinyl)-1H-indazol-3-yl)-2-pyrazinyl)-4-piperidinamine]
4	1420	22100	34	10			NC1CCN(c2cncc(-c3n[nH]c4ccc(-c5ccccc5Cl)cc34)n2)CC1 [Example 83, 1-(6-(5-(2-chlorophenyl)-1H-indazol-3-yl)-2-pyrazinyl)-4-piperidinamine]
4	253	> 31600	45	9			NC1CCN(c2cncc(-c3n[nH]c4ccc(-c5cc([N+](=O)[O-])ccc5F)cc34)n2)CC1 [Example 84, 1-(6-(5-(2-fluoro-5-nitrophenyl)-1H-indazol-3-yl)-2-pyrazinyl)-4-piperidinamine]
3	480	> 31600	49	7			NC1CCN(c2cncc(-c3n[nH]c4ccc(-c5ccccc5)cc34)n2)CC1 [Example 75, 1-(6-(5-phenyl-1H-indazol-3-yl)-2-pyrazinyl)-4-piperidinamine]
3	199	5000	20	2			NC1CCN(c2cncc(-c3n[nH]c4ccc(-c5ccncc5)cc34)n2)CC1 [Example 102, 1-(6-(5-(4-pyridinyl)-1H-indazol-3-yl)-2-pyrazinyl)-4-piperidinamine]
1	3030	> 31600	27	3			Nc1ncc(-c2ccc3[nH]nc(-c4cncc(N5CCC(N)CC5)n4)c3c2)cn1 [Example 97, 5-(3-(6-(4-amino-1-piperidinyl)-2-pyrazinyl)-1H-indazol-5-yl)-2-pyrimidinamine]
